# What was measured:
# PKM2, human recombinant = target: T1, PKM2, human recombinant (Homo sapiens, UniProt P14618); assay: PKM2 enzymatic activity assay (Kinase-Glo Plus luminescence); format: biochemical;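 for Max activity Group: percent increase over no-compound signal after subtracting the no-PKM2 background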
# T1 construct: purchased BPS 50295
# Protocol: PKM2 performs the following enzymatic reaction, where the PKM2 substrates, PEP (phosphoenolpyruvate) and ADP, are converted to pyruvate and ATP as follows:
# All of the enzymatic reactions were conducted in duplicates at room temperature for 1 hour in a 50 μL mixture containing: • PKM2 assay buffer (50 mM Imidazole, pH 7.2; 7 mM MgCl2; 50 mM KCl; 0.01% Tween; • and 0.05% BSA), 0.1 mM ADP, 0.5 mM PEP, 0.1 nM PKM2 enzyme (PKM2, human recombinant (BPS catalog number 50295)) and the indicated test compound. Fructose 1,6 biphosphat e, (FBP (Sigma)) was used as a positive control for activation at concentration of 0.5 mM. After enzymatic reactions, 50 μL of Kinase-Glo® Plus reagent (Promega kit) was added to each well and luminescence was measured using a BioTek Synergy™ 2 microplate reader.
# PKM2 activity assays were performed in duplicates at each concentration. The luminescence data were analyzed using the computer software, GraphPad PRISM®. In the absence of the compound, the luminescence was defined as 0% activity. The percent activity in the presence of each compound was calculated according to the following equation:
# % Activity=[(L−Lb)/(Lt−Lb)−1]×100%
# where L=the luminescence in the presence of the test compound, Lb=the luminescence in the absence of PKM2, and Lt=the luminescence intensity in the absence of the test compound. The % activity values versus a series of compound concentrations were plotted using non-linear regression analysis of Sigmoidal dose-response curve generated with the equation Y=B+(T−B)/1+10^((LogEC50-X)×Hill Slope), where Y=percent activity, B=minimum percent activity, T=maximum percent activity, X=logarithm of compound and Hill Slope=slope factor or Hill coefficient. The AC50 values, shown in Table 2 were determined for the indicated test compounds as the concentration causing a half-maximal percent activity.
# [1] = system: H1299 (Non-small cell lung carcinoma cell line); assay: Cell proliferation index assay, Assay Protocol II (Fluofarma, flow cytometry); format: cell-based; details: Homo sapiens, NCI-H1299
# Protocol: In a second assay to determine the inhibition of cell proliferation by a test compound, cell proliferation of the cell line of interest was measured by a cell proliferation index assay using Fluofarma (www.fluofarma.com) based technology. This assay is based on the dilution rate of a fluorescent membrane marker, which is a direct function of the number of cell divisions. Briefly, the assay is performed by loading the cells with a non-toxic fluorescent phospholipid analog before the seeding. […] Flow cytometry analysis of the fluorescent probe is performed after the loading of the cells both prior to, as well as after treatment with various concentrations of the test compound. The dilution rate of the fluorescent probe at the single cell level is directly correlated to the number of cell divisions.
# [2] = system: H1299 Human Non-Small Cell Lung Carcinoma; assay: H1299 human non-small cell lung carcinoma nude mouse xenograft model, tumor growth delay; format: in vivo, mice; details: for MTV (n) Day 28: median tumor volume of animals not at endpoint (n in brackets)
# Protocol: (§1) The animals were fed ad libitum water (reverse osmosis, 1 ppm Cl) and NIH 31 Modified and Irradiated Lab Diet® consisting of 18.0% crude protein, 5.0% crude fat, and 5.0% crude fiber. The mice were housed on irradiated Enrich-o′ Cobs™ Laboratory Animal Bedding in static microisolators on a 12-hour light cycle at 20-22° C. (68-72° F.) and 40-60% humidity.
# H1299 (NCI-H1299) NSCLC cells were obtained from the American Type Culture Collection, which reports the cell line to have originated from a lymph node metastasis and to lack p53 expression. The cell line was maintained as exponentially growing cultures in RPMI-1640 medium supplemented with 10% fetal bovine serum, 2 mM glutamine, 100 units/mL penicillin G sodium, 100 μg/mL streptomycin sulfate, 25 μg/mL gentamicin, 10 mM HEPES, and 0.075% sodium bicarbonate. The tumor cells were cultured in tissue culture flasks in a humidified incubator at 37° C., in an atmosphere of 5% CO2 and 95% air.
# H1299 tumor cells were harvested during log phase growth and suspended in cold PBS. Each nude mouse was inoculated subcutaneously in the right flank with 0.2 mL of the cell suspension (1×10^7 cells). The tumors were periodically calipered in two dimensions to monitor size as the mean volume approached the desired 90-130 mm^3 range. Tumor size was calculated by the following formula:
# where w=width and l=length, in mm, of the tumor. Tumor weight may be estimated with the assumption that 1 mg is equivalent to 1 mm^3 of tumor volume.
# Compound 13A (MW 467.51, code-named XT26) was provided as a powder stored at −20° C., and protected from light during storage and handling. Dosing suspensions, in 0.5% carboxymethyl cellulose and 1% Tween® 80 in deionized water (Vehicle), were prepared fresh for each dose, and kept at 4° C. post formulation. Gemcitabine (Gemzar®, Lilly, 38 mg/mL, Lot # A866884A) was stored at room temperature. A fresh 12 mg/mL gemcitabine dosing solution was prepared on each treatment day by diluting an aliquot of the stock solution with saline.
# (§2) Dosing began on D1 in four groups of mice (n=12/group in Groups 1, 3, and 4; n=6 in Group 2). XT26 and its vehicle were administered intraperitoneally (i.p.) twice daily for 28 days (b.i.d.×28), starting with the p.m. dose on D1 and ending with the a.m. dose on D29. Gemcitabine was administered i.p. once daily at three-day intervals for four doses (q3d×4). In all groups, the dosing volume of 10 ml/kg (0.2 ml/20 g mouse) was scaled to the weight of each individual animal, as measured twice weekly.
# Group 1 mice received the XT26 vehicle b.i.d.×28, and served as the controls for the study. Group 2 received gemcitabine at 120 mg/kg. Group 3 was to receive XT26 at 100 mg/kg b.i.d.×28; on D21, four mice (Animals 1, 3, 4, and 5) erroneously received 200 mg/kg XT26 for their a.m. dose. […] Group 4 dosing at 200 mg/kg resumed on D17 on a qd (once daily)×13 dosing schedule. Because of a scheduling error, the D19 dose for Group 4 mice was omitted; qd dosing occurred on Days 17, 18, and 20-28.
# Tumors were calipered twice weekly for the duration of the study, and each animal was euthanized when its neoplasm reached the predetermined endpoint volume (1200 mm^3) or at the end of the study, whichever came first. Animals that exited the study for tumor growth were documented as euthanized for tumor progression (TP), with the date of euthanasia. The time to endpoint (TTE) for each mouse was calculated by the following equation: […]
# where TTE is expressed in days, endpoint volume is expressed in mm^3, b is the intercept, and m is the slope of the line obtained by linear regression of a log-transformed tumor growth data set.
# [3] = H1299 nude mouse xenograft study, toxicity (body weight, deaths, organ weights); format: in vivo, mice; details: Gemcitabine 120 mg/kg ip q3d × 4
# Protocol: as §1, §2
# Group 1 mice received the XT26 vehicle b.i.d.×28, and served as the controls for the study. Group 2 received gemcitabine at 120 mg/kg. Group 3 was to receive XT26 at 100 mg/kg b.i.d.×28; on D21, four mice (Animals 1, 3, 4, and 5) erroneously received 200 mg/kg XT26 for their a.m. dose. Group 4 was to receive XT26 at 200 mg/kg b.i.d.×28, but dosing stopped on D9 (b.i.d.×8) because of toxicity. Group 4 dosing at 200 mg/kg resumed on D17 on a qd (once daily)×13 dosing schedule. Because of a scheduling error, the D19 dose for Group 4 mice was omitted; qd dosing occurred on Days 17, 18, and 20-28.
# Animals were weighed daily on D1-5, then twice weekly until the completion of the study. The mice were observed frequently for overt signs of any adverse, treatment-related side effects.
# On D10, both kidneys and the liver were harvested from each euthanized Group 4 animal. Each organ was weighed separately, fixed overnight in 10% neutral buffered formalin, and transferred to 70% ethanol.
# [4] = Gemcitabine 120 mg/kg ip q3d × 4
# [5] = Group 1 vs 2: Gemcitabine ip q3d × 4, 120 mg/kg
# T1 sequence (P14618 whole entry): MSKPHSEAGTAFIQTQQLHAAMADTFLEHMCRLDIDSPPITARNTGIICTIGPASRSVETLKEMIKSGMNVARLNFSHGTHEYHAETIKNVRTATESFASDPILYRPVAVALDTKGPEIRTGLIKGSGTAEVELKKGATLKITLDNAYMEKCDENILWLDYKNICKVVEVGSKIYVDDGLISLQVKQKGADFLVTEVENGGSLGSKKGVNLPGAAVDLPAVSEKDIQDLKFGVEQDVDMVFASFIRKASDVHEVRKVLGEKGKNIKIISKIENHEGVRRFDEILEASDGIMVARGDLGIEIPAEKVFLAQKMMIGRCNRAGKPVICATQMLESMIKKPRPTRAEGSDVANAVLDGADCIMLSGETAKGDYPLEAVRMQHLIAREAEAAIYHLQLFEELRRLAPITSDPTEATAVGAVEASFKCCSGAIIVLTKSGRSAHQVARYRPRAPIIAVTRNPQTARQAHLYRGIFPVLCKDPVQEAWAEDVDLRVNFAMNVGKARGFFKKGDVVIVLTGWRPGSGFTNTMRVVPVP
"AC50 (PKM2, human recombinant; 0.1 nM PKM2, 0.1 mM ADP, 0.5 mM PEP, 1 hour, room temperature, read-out: AC50 group) [µM]","Emax (PKM2, human recombinant; 1 h, maximum percent activity, luminescence without compound = 0% activity, read-out: Max activity Group) [%]",IC50 [1] [µM],SMILES,"% TGD [2, 4] [%]","Regressions CR [2, 4]","Regressions PR [2, 4]","Regressions TFS [2, 4]","Median TTE ([2]; Gemcitabine 120 mg/kg ip q3d × 4, endpoint 1200 mm^3, 28-day study) [days]","MTV (n) Day 28 [2, 4]","MTV (n) Day 28 ([2]; Gemcitabine 120 mg/kg ip q3d × 4, listed as gemcitabine) [mm^3]","T − C ([2]; Gemcitabine 120 mg/kg ip q3d × 4, vs Group 1 vehicle) [days]","Median survival ([2]; Gemcitabine ip q3d × 4, 120 mg/kg (Column B = treated group))","Are the survival curves sig different? [2, 5]","Hazard Ratio [2, 5]",response of tumor model to therapy ([2]; standard 120 mg/kg gemcitabine therapy),Deaths NTR ([3]; non-treatment-related deaths),Deaths TR ([3]; treatment-related deaths)
≤ 1,130 to 200,< 40,"COc1ccc(C2CC(c3ccc(NS(=O)(=O)c4ccc(F)cc4)cc3)=NN2C(C)=O)cc1 (racemic) [Compound 6A, N-(4-(1-acetyl-5-(4-methoxyphenyl)-4,5-dihydro-1H-pyrazol-3-yl)phenyl)-4-fluorobenzenesulfonamide]",–,–,–,–,–,–,–,–,–,–,–,–,–,–
–,–,< 40,"COc1ccc(C2CC(c3ccc(NS(=O)(=O)c4c(F)cccc4F)cc3)=NN2C(C)=O)cc1 (stereo not drawn) [Compound 61A, N-(4-(1-acetyl-5-(4-methoxyphenyl)-4,5-dihydro-1H-pyrazol-3-yl)phenyl)-2,6-difluorobenzenesulfonamide]",–,–,–,–,–,–,–,–,–,–,–,–,–,–
–,–,–,"Nc1ccn([C@@H]2O[C@H](CO)[C@@H](O)C2(F)F)c(=O)n1 [Gemcitabine, gemcitabine, reference compound]",50,0,0,0,28.0,600 (5) mm^3,600,9.3,Undefined,Yes,11.48,responded moderately well,0,0
